Columns and labels:
HCT116 cells = assay: Antiproliferative activity, Alamar Blue assay, HCT116 cells; format: cell-based, human; parameters: key to HCT116 antiproliferative activity pIC50: pIC50 = -log IC50 (IC50: conc. reducing growth to 50% of control); conditions: for IC50: Homo sapiens, HCT-116, HCT116 cells, read-out: HCT116 antiproliferative activity pIC50 (converted)
In short: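 Readout is resazurin fluorescence (ex 540, em 590 nm) after a 4 h dye incubation at 37 °C, following 4-day compound treatment of HCT116 cells plated 24 h earlier. Results expressed as % viable cells versus untreated; pIC50 derived from probit-fitted IC50.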

PC-3 cells = assay: Antiproliferative activity, Alamar Blue assay, PC-3 cells; format: cell-based, human; conditions: for IC50: Homo sapiens, PC-3, PC3 cells, read-out: PC3 antiproliferative activity pIC50 (converted)
In short: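 Resazurin-based fluorescence (540 nm ex/590 nm em) measured after 4-day compound treatment plus 24 hrs dye incubation at 37° C. Cells plated at 4.5×10^3 cells/ml, adhered 24 hr first. pIC50 from probit-derived IC50 on % viable cells versus untreated, triplicate wells.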

PC3 cells = assay: EB1 Comet (microtubule disruption) assay; format: cell-based, human; conditions: 1 hour treatment; for minimal effective concentration: Homo sapiens, PC-3, 1 h, read-out: EB1 pLAC (converted)
In short: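 Readout is loss of Eb1 plus-end foci, scored by immunofluorescence microscopy, in PC3 cells after 1 h compound treatment at 37 °C with 0.6% final DMSO. LAC is defined as the lowest concentration leaving at least 50% of cells without Eb1 foci.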

tubulin = assay: Tubulin polymerization assay; format: biochemical; parameters: key: a compound showing 0 to 50% inhibition at 20 μM is reported as score 1; Score 2 compounds are defined as compound showing more than 50% inhibition at 20 μM and less than 50% inhibition at 5 μM; a compound showing more than 50% inhibition at 5 μM is reported as score 3; conditions: tested at 20 μM and 5 μM
Description: The tubulin polymerization assay is an adaptation of an assay originally described by Bonne, D. et al. (J. Biol. Chem., 1985, 260:2819-25). The assay kit was purchased from Cytoskeleton, Inc. (catalogue number BK011) and the assay was performed as described by the supplier with the following modifications. The assay was run in a 384-well black Proxiplate (Perkin Elmer) and volumes were adapted accordingly. The reactions were carried out in a final volume of 10 μl. Compounds were added to 25 μl of the reaction mix in 96-well PP plates (Corning) on ice and 10 μl of this mixture was dispensed into duplicates of the 384-well Proxiplates pre-warmed to 37° C. in a Fluoroskan Ascent plate reader (Thermo Scientific). Fluorescence measurements were taken every minute for one hour. The maximum slope of each well was determined (linear regression through 4 consecutive points) and polymerization was calculated as a percentage of polymerization observed in the absence of compound. Compounds were first measured at a concentration of 20 μM and then at 5 μM for those showing more than 50% inhibition at 20 μM as compared to the polymerization observed in the absence of compound. Results are reported in Table F-2 as scores defined as: a compound showing 0 to 50% inhibition at 20 μM is reported as score 1; a compound showing more than 50% inhibition at 5 μM is reported as score 3.

SMILES	HCT116 antiproliferative activity pIC50 (HCT116 cells; HCT116 cells)	PC3 antiproliferative activity pIC50 (PC-3 cells; PC3 cells)	melting point	IC50 (HCT116 cells)	IC50 (PC-3 cells)	minimal effective concentration (PC3 cells)	tubulin polymerisation score (tubulin)	EB1 pLAC (PC3 cells)
CCc1cc2ccc(C(C)(C#N)CC3COc4ccccc4O3)cc2[nH]c1=O (single isomer, unassigned) [Compound 48]	5.8	5.4	241 °C			1 µM		
CCc1cc2ccc(C(C)(C#N)Cc3cccc(C(=O)O)c3)cc2[nH]c1=O (stereo not drawn) [Compound 10]			> 260 °C	> 10000 nM	> 10000 nM			
CCc1cc2ccc(C(C)(C#N)Cc3cccc(-c4nc(C)no4)c3)cc2[nH]c1=O (stereo not drawn) [Compound 11]			152 °C	1580 nM	1580 nM	1 µM		
CCc1cc2ccc(C(C)(C#N)Cc3cccc(C(=O)NC)c3)cc2[nH]c1=O (stereo not drawn) [Compound 13]			182 °C	7940 nM	7940 nM			
CCc1cc2ccc(C(C)(C#N)Cc3cccc(NS(C)(=O)=O)c3)cc2[nH]c1=O (stereo not drawn) [Compound 14]			80 °C	> 10000 nM	> 10000 nM			
CCc1cc2ccc(C(C)(C#N)Cc3cccc(NC(=O)N4CCOCC4)c3)cc2[nH]c1=O (stereo not drawn) [Compound 16]			121 °C	> 10000 nM	> 10000 nM			
CCc1cc2ccc(C(C)(C#N)Cc3ccccc3F)cc2[nH]c1=O (stereo not drawn) [Compound 106]				398 nM	794 nM	0.316 µM	1 (a compound showing 0 to 50% inhibition at 20 μM is reported as score 1)	
CCc1cc2ccc(C(C)(C#N)Cc3cccc(C(F)(F)F)c3)cc2[nH]c1=O (stereo not drawn) [Compound 109]				251 nM	631 nM	3.16 µM	2	
CCc1cc2ccc(C(C)(C#N)Cc3ccc(F)cc3)cc2[nH]c1=O (stereo not drawn) [Compound 115]				631 nM	631 nM		2	
CCc1cc2ccc(C(C)(C#N)Cc3cc(F)cc(Cl)c3)cc2[nH]c1=O (stereo not drawn) [Compound 126]				200 nM	200 nM	0.316 µM	2	
CCc1cc2ccc(C(C)(C#N)Cc3cc(F)cc(F)c3)cc2[nH]c1=O (stereo not drawn) [Compound 128]				126 nM	200 nM		1 (a compound showing 0 to 50% inhibition at 20 μM is reported as score 1)	7.5
CCc1cc2ccc(C(C)(C#N)Cc3cccc(Cl)c3F)cc2[nH]c1=O (stereo not drawn) [Compound 130]				158 nM	398 nM	0.1 µM	2	
CCc1cc2ccc(C(C)(C#N)Cc3ccc(F)cc3F)cc2[nH]c1=O (stereo not drawn) [Compound 137]				251 nM	794 nM	1 µM	1 (a compound showing 0 to 50% inhibition at 20 μM is reported as score 1)	
CCc1cc2ccc(C(C)(C#N)Cc3c(F)cccc3F)cc2[nH]c1=O (stereo not drawn) [Compound 138]				251 nM	1000 nM	1 µM	1 (a compound showing 0 to 50% inhibition at 20 μM is reported as score 1)	
CCc1cc2ccc(C(C)(C#N)Cc3cc(Cl)cc(Cl)c3)cc2[nH]c1=O (stereo not drawn) [Compound 141]				126 nM	79.4 nM	0.1 µM		
CCc1cc2ccc(C(C)(C#N)CC3CN(C)c4ccccc4O3)cc2[nH]c1=O (stereo not drawn) [Compound 156]				2000 nM	2510 nM	1 µM		
CCc1cc2ccc(C(C)(C#N)Cc3cccc(CCC#N)c3)cc2[nH]c1=O (stereo not drawn) [Compound 165]				631 nM	1000 nM	1 µM		
CCc1cc2ccc([C@](C)(C#N)C[C@@H]3CCc4cc(C)ccc4O3)cc2[nH]c1=O [Compound 251]			192 °C	631 nM	1000 nM			
CCc1cc2ccc([C@@](C)(C#N)C[C@@H]3CCc4cc(C)ccc4O3)cc2[nH]c1=O [Compound 252]			184 °C	126 nM	251 nM			

Second part, led by results:

HCT116 antiproliferative activity pIC50 (HCT116 cells; HCT116 cells)	PC3 antiproliferative activity pIC50 (PC-3 cells; PC3 cells)	melting point	IC50 (HCT116 cells)	IC50 (PC-3 cells)	SMILES	minimal effective concentration (PC3 cells)	tubulin polymerisation score (tubulin)	EB1 pLAC (PC3 cells)
			794 nM	1580 nM	CCc1cc2ccc([C@@](C)(C#N)CCOc3ccccc3)cc2[nH]c1=O (single isomer, unassigned) [Compound 150]		2	
			316 nM	398 nM	CCc1cc2ccc(C(C)(C#N)Cc3cccc(F)c3)cc2[nH]c1=O (stereo not drawn) [Compound 112]	1 µM	1 (a compound showing 0 to 50% inhibition at 20 μM is reported as score 1)	
			398 nM	251 nM	CCc1cc2ccc(C(C)(C#N)Cc3cccc(OC)c3)cc2[nH]c1=O (stereo not drawn) [Compound 113]	> 10 µM	2	
			2510 nM	2000 nM	CCc1cc2ccc(C(C)(C#N)Cc3ccc(C)cc3)cc2[nH]c1=O (stereo not drawn) [Compound 117]		2	
			316 nM	316 nM	CCOc1ccccc1OCCC(C)(C#N)c1ccc2cc(CC)c(=O)[nH]c2c1 (stereo not drawn) [Compound 142]	1 µM		
			501 nM	794 nM	CCc1cc2ccc(C(C)(C#N)CCOc3cccc(C)c3)cc2[nH]c1=O (stereo not drawn) [Compound 143]	1 µM	2	
			501 nM	631 nM	CCc1cc2ccc(C(C)(C#N)CCOc3ccc(F)cc3)cc2[nH]c1=O (stereo not drawn) [Compound 144]	0.316 µM		
			398 nM	501 nM	CCc1cc2ccc(C(C)(C#N)CCOc3ccccc3)cc2[nH]c1=O (stereo not drawn) [Compound 145]	1 µM		
			501 nM	794 nM	CCc1cc2ccc(C(C)(C#N)CCOc3ccc(OC)cc3)cc2[nH]c1=O (stereo not drawn) [Compound 147]	1 µM		
			316 nM	794 nM	CCc1cc2ccc(C(C)(C#N)CCOc3ccccc3C)cc2[nH]c1=O (stereo not drawn) [Compound 148]	0.316 µM	1 (a compound showing 0 to 50% inhibition at 20 μM is reported as score 1)	
			631 nM	1000 nM	CCc1cc2ccc(C(C)(C#N)CCOc3ccc(C)cc3)cc2[nH]c1=O (stereo not drawn) [Compound 149]		2	
			631 nM	2000 nM	CCc1cc2ccc(C(C)(C#N)CCOc3cccc(Cl)c3)cc2[nH]c1=O (stereo not drawn) [Compound 151]	1 µM	2	
			631 nM	1580 nM	CCc1cc2ccc(C(C)(C#N)CCOc3ccccc3Cl)cc2[nH]c1=O (stereo not drawn) [Compound 152]		2	
			200 nM	631 nM	CCc1cc2ccc(C(C)(C#N)CCOc3ccccc3Br)cc2[nH]c1=O (stereo not drawn) [Compound 153]		2	
			398 nM	398 nM	CCc1cc2ccc(C(C)(C#N)CCOc3ccc(Cl)cc3Cl)cc2[nH]c1=O (stereo not drawn) [Compound 154]	0.1 µM		
			1580 nM	1000 nM	CCc1cc2ccc(C(C)(C#N)CCOc3ccc4ccccc4c3)cc2[nH]c1=O (stereo not drawn) [Compound 157]	0.1 µM		
			1260 nM	794 nM	CCc1cc2ccc(C(C)(C#N)CCOc3cccc4ccccc34)cc2[nH]c1=O (stereo not drawn) [Compound 158]	0.316 µM		
			2000 nM	1260 nM	CCc1cc2ccc(C(C)(C#N)CCOc3ccc(Br)cc3)cc2[nH]c1=O (stereo not drawn) [Compound 160]	0.316 µM		
			501 nM	501 nM	CCc1cc2ccc(C(C)(C#N)CCOc3ccc(C#N)cc3)cc2[nH]c1=O (stereo not drawn) [Compound 161]	0.316 µM	2	
			398 nM	1000 nM	CCc1cc2ccc(C(C)(C#N)CCOc3cccc4c3OCCO4)cc2[nH]c1=O (stereo not drawn) [Compound 163]		2	
